In patent US10568874B2, “Indane-amines as PD-L1 antagonists” (CHEMOCENTRYX, INC., priority 2018, dated 2020) one finds IC50 data, which are given here for 8 compounds.

What is called IC50 is the midpoint of a concentration-inhibition curve. Read a high IC50 as lower potency.

This assay concerns the target human PD-L1 (Homo sapiens (Human), UniProt Q9NZQ7). The assay can be described thus: Enzyme-Linked Immunosorbent Assay (ELISA), PD-1/PD-L1 binding. Particulars: plate-coated human PD-L1, biotinylated human PD-1. The procedure:
Plates were coated with 1 μg/mL of human PD-L1 (obtained from R&D) in PBS overnight at 4° C. The wells were then blocked with 2% BSA in PBS (W/V) with 0.05% TWEEN-20 for 1 hour at 37° C. The plates were washed 3 times with PBS/0.05% TWEEN-20 and the samples were diluted to 1:5 in dilution medium in the ELISA plates. Human PD-1 and biotin 0.3 μg/mL (ACRO Biosystems) were added and incubated for 1 hour at 37° C. then washed 3 times with PBS/0.05% TWEEN-20. A second block was added with 2% SA in PBS (W/V)/0.05% TWEEN-20 for 10 min at 37° C. and was washed 3 times with PBS/0.05% TWEEN-20. Streptavidin-HRP was added for 1 hour at 37° C. then washed 3 times with PBS/0.05% TWEEN-20. TMB substrate was added and reacted for 20 min at 37° C. A stop solution (2 N aqueous H2SO4) was added. The absorbance was read at 450 nm using a micro-plate spectrophotometer.
(An ELISA detects its analyte on a solid surface through an enzyme-linked reagent.)

human PD-L1, sequence (Q9NZQ7 19-239): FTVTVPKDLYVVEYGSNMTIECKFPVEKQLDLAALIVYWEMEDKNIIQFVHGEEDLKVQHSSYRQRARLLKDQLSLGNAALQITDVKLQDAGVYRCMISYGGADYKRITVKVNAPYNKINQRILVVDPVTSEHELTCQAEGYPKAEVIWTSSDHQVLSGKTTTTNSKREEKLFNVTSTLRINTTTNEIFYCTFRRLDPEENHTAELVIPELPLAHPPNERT

The compound `CCOc1cc(NC2CCc3c(-c4cccc(OCCCN5CCC(C)(F)CC5)c4C)cccc32)c(Cl)cc1CN[C@H]1CCC(=O)NC1` (some centres unmarked) displayed an IC50 of 500 to 20000 nM.
The figure for `CCOc1cc(NC2CCc3c(-c4cccc(OCCCN5CCC(C)(F)CC5)c4C)cccc32)c(Cl)cc1CNC[C@@H]1CCC(=O)N1` (some centres unmarked) is 5 to 500 nM; for `CCOc1cc(NC2CCc3c(-c4ccccc4F)cccc32)c(Cl)cc1CN[C@@H](CO)C(=O)O` (stereo partly drawn) [(2S)-2-[[5-chloro-2-ethoxy-4-[[4-(2-fluorophenyl)indan-1-yl]amino]phenyl]methylamino]-3-hydroxy-propanoic Acid] it is 5 to 500 nM.
Next, `CCOc1cc(NC2CCc3c(-c4cccc(OCCCN5CCC(F)CC5)c4C)cccc32)c(Cl)cc1CNC[C@@H]1CCC(=O)N1` (some centres unmarked): 5 to 500 nM; `CCOc1cc(NC2CCc3c(-c4cccc(OCCCN5CCC(C)(F)CC5)c4Cl)cccc32)c(Cl)cc1CN[C@H]1CCC(=O)NC1` (some centres unmarked): 500 to 20000 nM; `CCOc1cc(NC2CCc3c(-c4cccc(OCCCN5CCC(F)CC5)c4C)cccc32)c(Cl)cc1CN[C@H]1CCC(=O)NC1` (some centres unmarked): 500 to 20000 nM.
Next, `CCOc1cc(NC2CCc3c(-c4cccc(OCCCN5CCC(F)CC5)c4C)cccc32)c(Cl)cc1CN[C@@H](CO)C(=O)O` (some centres unmarked): 5 to 500 nM; `CCOc1cc(NC2CCc3c(-c4cccc(OCCCN5CCC(C)(F)CC5)c4Cl)cccc32)c(Cl)cc1CN1CCC(O)CC1` (centres unmarked): 500 to 20000 nM.
